In US9533002B2, “Methods of treating a metabolic syndrome by modulating heat shock protein (HSP) 90-β” (Berg LLC, priority 2012, dated 2017):
Entries after “also recorded” stand apart in the source; their conditions may differ.

Legend:
[1] = system: HSMM myotubes; experiment: Insulin signaling in HSMM myotubes: western blot of total and phosphorylated Akt, Erk, GSK3β; type: cell-based, human; details: myotubes treated with inhibitor, then insulin stimulation
Experimental: Human skeletal muscle myoblasts (HSMM) were procured from PromoCell and were cultured in growth media recommended by the vendor. Confluent cultures were replaced with differentiation media (DMEM, 2% horse serum, pyruvate and HEPES) and cells allowed to differentiate for 7 to 10 days.
Human HSMM myotubes cells that were plated in 12 well plates the previous week were used. The media was aspirated and fresh media with appropriate dilutions of the NC and H3 siRNA for Hsp90 knockdown were added such that the final concentration in the wells of the plate was 100 nM. Mirus TKO transfection reagent was used for transfecting the cells. The plate was then incubated at 37° C. overnight.
The media was aspirated and the cells were washed off twice—first with warm PBS and second with 0.1% BSA containing growth media. The cells were then serum starved for 2-3 hours in 0.1% differentiation media containing the appropriate inhibitors at 37° C. followed by insulin stimulation for 5 minutes (0, 10, and 100 nM insulin).
The wells were then washed once with PBS and harvested into 100 μl of RIPA buffer containing protease and phosphatase inhibitors. The plate was placed on ice and, using a cell scraper, the cells were scraped from the plate. […]
Protein content was estimated by BCA assay and samples were prepared for gel electrophoresis and western blotting as described in subsequent sections. The total volume required to load 10 μg of total protein was calculated. […]
Visualization of proteins and quantification of western blots was performed as follows. […]
Each strip of membrane was taken out arranged in a clean flat surface. […] The bands were quantified using the BIORAD® software.
HSMM myotubes were sequentially (1) transfected with 3 different siRNAs targeting HSP90AB1 for 48 hours, (2) serum starved for 3 hours, and (3) subjected to stimulation of different concentrations of insulin (0, 10, 100 nM). Signaling events downstream of insulin stimulation were assessed by western blotting for levels of total and phosphorylated Akt, Erk, and GSK3β. […]

[2] = system: HSMM myotubes; experiment: Seahorse bioenergetic profiling of myotubes (OCR; oligomycin, CCCP, rotenone); type: cell-based, human
Experimental: HSMM myotubes cultured in wells in a Seahorse® assay cartridge were differentiated with 2% horse serum myocyte differentiation media for 7 days. Cells were transfected with either negative control scrambled siRNA or siHsp siRNA with TKO transfection reagents at concentration of 50 nM following vendor instructions as described above (Mirus Bio®). After 48 hours transfection, cells were subjected to Seahorse® bioenergetics analysis using drugs to modulate cell energetics, i.e., oligomycin, carbonyl cyanide-M-chlorophenyl hydrazine (CCCP), and rotenone. Oligomycin inhibits mitochondrial ATP synthase (complex V of ET chain) and allows analysis of glycolytic capacity. CCCP is an uncoupler that […] the mitochondrial membrane, thereby inducing maximum compensatory oxygen consumption, and allows analysis of uncoupled OCR. Rotenone inhibits NADH dehydrogenase (complex I of ET chain) and allows analysis of non-mitochondrial OCR.
To perform the assay, each well of the Seahorse® assay cartridge was washed with 1 ml running media. 500 ul of running media was added to each well and the plate was placed in an 37° C. (CO2 free) incubator. Drugs to modulate mitochondrial activity were prepared at a 10× (10 uM) concentration, so that after addition to the cartridge, the final concentration would be 1× (1 μM). Oligomycin (50 ul), CCCP (55 ul) and rotenone (55 ul) were added to ports A, B, and C of the cartridge and the cartridge was placed back in the incubator. The Seahorse® assay wizard was opened and the cycle parameters and times were setup. The Seahorse® assay was then performed using the instrument. After the Seahorse® assay, cells were lysed with 50 ul 450 mM NaOH and then neutralized with 5 ul Tris 6.8. DNA lysates were subjected to spectrophotometric analysis at OD260 using BioTek® Take3 DNA plate reader. The data were normalized with DNA contents of the cells.
HSMM myotubes were transfected with siRNA of either control or siHsp90β for 48 hours as described above, then subjected to Seahorse® bioenergetic profiling (XF24 Analyzer) using different mitochondrial drugs including oligomycin, CCCP, and rotenone; and monitored changes on oxygen consumption rate (OCR) that reflects either basal or maximum mitochondrial oxidative capacity. The results were normalized by DNA content.

[3] = myotubes treated at different concentrations

CCc1cc(-c2n[nH]c(C)c2-c2ccc3c(c2)OCCO3)c(O)cc1O [CCT018159]
level of pERK [1]: no change; also recorded: No significant changes
level of pGSK3β [1]: no change; also recorded: No significant changes
insulin stimulated phosphorylation of Akt (phospho-AKT) ([1]; higher concentration, 10 uM, vs untreated cultures): significantly enhanced; also recorded: increase
CCCP induced uncoupling response on mitochondrial metabolism ([2]; 1 μM, 3 μM, and 10 μM (FIG. 10 legend)): did not have a significant effect
CCCP induced OCR ([2]; 10 uM): greater suppression
uncoupled OCR ([2]; lower concentration, 1 μM): increased
basal OCR [2, 3]: no observed change
uncoupled OCR (CCCP induced) [2, 3]: decreased in a concentration dependent manner
